Some test systems named below: MDA-MB-468 breast; LOX IMVI melanoma; HT29 colon; UACC-257 melanoma; MCF7 breast; HCC-2998 colon; NCI-H23 lung; EKVX NSCLC; TK-10 renal; T-47D breast; CCRF-CEM leukemia; UO-31 renal; SNB-19 CNS; A549 NSCLC; NCI-H460 lung; HS 578T breast; MOLT-4 leukemia; HOP-92 NSCLC; RXF 393 renal; HCT-116 colon; UACC-62 melanoma; U251 CNS; SK-MEL-2 melanoma; K-562 leukemia; MDA-MB-435; MALME-3M melanoma; SNB-75 CNS; SR leukemia; M14 melanoma; DU-145 prostate; A498 renal; NCI-H522 lung; HL-60(TB) leukemia; RPMI-8226 leukemia; MDA-MB-231 breast; PC-3 prostate; SK-MEL-28 melanoma; COLO 205 colon; OVCAR-8 ovarian; HOP-62 NSCLC; ACHN renal; OVCAR-3 ovarian; SK-MEL-5 melanoma; SN12C renal; SK-OV-3 ovarian; 786-0 renal; SF-539 CNS; HCT-15 colon; KM12 colon; OVCAR-5 ovarian; SF-268 CNS; OVCAR-4 ovarian; SF-295 CNS; BT-549 breast; IGROV1 ovarian; NCI-H226 lung.

Common to all, as to assay: growth of human tumour cells (NCI), 48 h

“And” between values parts separate entries of the source, which are not always exact repeats. Equal entries are not always repeated.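 Test compounds were applied to cells in 96-well plates for 48 hours at 5 doses. GI50: concentration for 50% inhibition of growth. TGI marks complete inhibition of growth.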

`COc1cccc(/C=C/C(=O)c2cc3c(N)c(C(=O)Nc4cccc(Cl)c4C)sc3nc2C)c1`: in the experiment on MDA-MB-468 breast, the GI50 is 0.778 µM and the TGI was 1.82 µM.
Take `c1cncc(CNc2ccccc2-c2nnc(Nc3ccc4c(c3)OCCO4)o2)c1`: in the experiment on MDA-MB-468 breast, the GI50 was 0.218 µM and the TGI was determined as 0.821 µM.
`COC[C@H]1OC(=O)c2coc3c2[C@@]1(C)C1=C(C3=O)[C@@H]2CCC(=O)[C@@]2(C)C[C@H]1OC(C)=O`: in the experiment on MDA-MB-468 breast, the GI50 was 0.421 µM and the TGI came out at 4.62 µM.
Turning to `C[C@@H]1CCN(C(=O)CC#N)C[C@@H]1N(C)c1ncnc2[nH]ccc12`, in the experiment on MDA-MB-468 breast, the GI50 is > 100 µM and the TGI is > 100 µM.
As for `CN(C)C(=O)c1cc(-c2ccc3ncnc(N4CCc5cc(F)c(Cl)cc54)c3c2)cnc1N`, the GI50 with LOX IMVI melanoma was 0.17 µM; with HT29 colon, 0.141 µM; in the experiment with UACC-257 melanoma, 0.198 µM; in the experiment on MCF7 breast, 0.0322 µM; with MDA-MB-468 breast, 0.043 µM; in the experiment on HCC-2998 colon, 0.165 µM. In addition, the GI50 in the experiment on NCI-H23 lung was 0.194 µM; in the experiment on EKVX NSCLC, 0.131 µM; in the experiment on TK-10 renal, 0.137 µM; in the experiment on T-47D breast, 0.0323 µM; in the experiment on CCRF-CEM leukemia, 0.137 µM; in the experiment with UO-31 renal, 0.0321 µM. The GI50 is 0.276 µM in the experiment on SNB-19 CNS; 0.113 µM in the experiment with A549 NSCLC; 0.161 µM in the experiment with NCI-H460 lung; 0.0309 µM in the experiment on HS 578T breast; 0.0638 µM in the experiment with MOLT-4 leukemia; 0.144 µM with HOP-92 NSCLC. Besides, the GI50 is 0.0379 µM in the experiment with RXF 393 renal; 0.111 µM in the experiment with HCT-116 colon; 0.109 µM in the experiment with UACC-62 melanoma; 0.2 µM in the experiment with U251 CNS; 0.191 µM with SK-MEL-2 melanoma; 0.281 µM with K-562 leukemia. Further, the GI50 is 0.187 µM in the experiment with MDA-MB-435; 0.0455 µM in the experiment on MALME-3M melanoma; 0.023 µM in the experiment with SNB-75 CNS; 0.0765 µM with SR leukemia; 0.277 µM in the experiment with M14 melanoma; 0.095 µM in the experiment on DU-145 prostate. Further, the GI50 with A498 renal was 0.127 µM; with NCI-H522 lung, 0.214 µM; with HL-60(TB) leukemia, 0.0575 µM; with RPMI-8226 leukemia, 0.0572 µM; in the experiment on MDA-MB-231 breast it was 0.203 µM; in the experiment on PC-3 prostate, 0.104 µM. The GI50 was 0.195 µM with SK-MEL-28 melanoma; 0.225 µM in the experiment with COLO 205 colon; 0.216 µM in the experiment on OVCAR-8 ovarian; 0.154 µM in the experiment on HOP-62 NSCLC; 0.217 µM in the experiment with ACHN renal; 0.128 µM with OVCAR-3 ovarian. Moreover, the GI50 in the experiment on SK-MEL-5 melanoma was 0.125 µM; in the experiment on SN12C renal it was 0.0698 µM; in the experiment on SK-OV-3 ovarian, 0.316 µM; in the experiment with 786-0 renal, 0.129 µM; in the experiment on SF-539 CNS it was 0.135 µM; in the experiment with HCT-15 colon, 0.127 µM. For the same compound, the GI50 with KM12 colon was 0.243 µM; in the experiment with OVCAR-5 ovarian it was 0.168 µM; with SF-268 CNS it was 0.149 µM; in the experiment with OVCAR-4 ovarian, 0.229 µM; with SF-295 CNS, 0.244 µM; in the experiment with BT-549 breast it was 0.0747 µM. Moreover, the GI50 in the experiment with IGROV1 ovarian is 0.0301 µM; with NCI-H226 lung, 0.131 µM. Further, the TGI was 1.17 µM with LOX IMVI melanoma; 1.58 µM in the experiment with HT29 colon; 3.92 µM with UACC-257 melanoma; 1.31 µM in the experiment on MCF7 breast; 0.178 µM with MDA-MB-468 breast; 1.03 µM in the experiment with HCC-2998 colon. In addition, the TGI is 2.86 µM in the experiment on NCI-H23 lung; 0.741 µM with EKVX NSCLC; 1.21 µM with TK-10 renal; 1.43 µM in the experiment on T-47D breast; 1.86 µM in the experiment on UO-31 renal; 3.44 µM with SNB-19 CNS. In addition, the TGI was 1.49 µM with A549 NSCLC; > 37.3 µM with NCI-H460 lung; 0.437 µM in the experiment with HS 578T breast; 3.95 µM in the experiment on MOLT-4 leukemia; 0.673 µM in the experiment on HOP-92 NSCLC; 0.317 µM in the experiment on RXF 393 renal. Moreover, the TGI in the experiment with HCT-116 colon is 0.296 µM; in the experiment on UACC-62 melanoma, 0.44 µM; in the experiment with U251 CNS it was 2.24 µM; with SK-MEL-2 melanoma, 0.474 µM; in the experiment with K-562 leukemia, > 100 µM; in the experiment with MDA-MB-435, 3.18 µM. The TGI was 0.366 µM in the experiment on MALME-3M melanoma; 0.649 µM with SNB-75 CNS; 0.815 µM in the experiment with SR leukemia; > 100 µM in the experiment on DU-145 prostate; 0.459 µM in the experiment on A498 renal; 1.51 µM in the experiment on NCI-H522 lung. Besides, the TGI in the experiment with HL-60(TB) leukemia was determined as 0.682 µM; in the experiment with RPMI-8226 leukemia, 0.419 µM; in the experiment with MDA-MB-231 breast, 1.52 µM; in the experiment on PC-3 prostate, 7.19 µM; with SK-MEL-28 melanoma, 5.18 µM; in the experiment with COLO 205 colon, 0.54 µM. Moreover, the TGI in the experiment on OVCAR-8 ovarian was found to be 7.5 µM; in the experiment on HOP-62 NSCLC, 2.31 µM; in the experiment on ACHN renal, 3.22 µM; in the experiment on OVCAR-3 ovarian, 0.743 µM; with SK-MEL-5 melanoma it was 0.276 µM; in the experiment with SN12C renal it was 3.02 µM. The TGI with SK-OV-3 ovarian was 1.75 µM; in the experiment on 786-0 renal, 1.43 µM; with SF-539 CNS, 0.7 µM; in the experiment on HCT-15 colon, 1.42 µM; in the experiment with KM12 colon it was 2.07 µM; in the experiment on OVCAR-5 ovarian, 2.45 µM. Also, the TGI was determined as 4.27 µM in the experiment on SF-268 CNS; 11.3 µM in the experiment on OVCAR-4 ovarian; 1.25 µM in the experiment with SF-295 CNS; 0.437 µM in the experiment with BT-549 breast; 0.161 µM in the experiment on IGROV1 ovarian; 3.37 µM in the experiment with NCI-H226 lung.
Turning to `Nc1ncc(-c2ccc(C(F)(F)F)cc2)c(NC2CCCCCC2)n1`, in the experiment with MDA-MB-468 breast, the GI50 was 4.15 µM and the TGI is > 100 µM.
In the same order, the values of `O=C(Nc1ccncc1)C(=O)c1cn(S(=O)(=O)c2ccccc2F)c2ccccc12` are 1.51 µM and 9.81 µM.
In the same order, the values of `C#CC[C@H](c1nc2cc(Cl)ccc2c(=O)n1Nc1ccccc1)N(CCCN)C(=O)c1cccc(Cl)c1F` are 0.0421 µM and 0.755 µM.
On to `Cc1nn2c(/C=C3/C(=O)Nc4ccc(Cl)cc43)c(-c3ccccc3)nc2s1`, for which, in the experiment on MDA-MB-468 breast, the GI50 is 3.47 µM and the TGI was determined as 14.7 µM.
Consider `O=C(NNc1nc2cc(F)c(F)cc2n2c(CN3CC4CNCC4C3)ccc12)c1ncccn1` (stereo not drawn), for which, in the experiment with MDA-MB-468 breast, the GI50 was 2.04 µM and the TGI turned out to be 9.82 µM.
For the compound `CCc1nc2ccc(Cc3ccc(C(=O)NO)cc3)cc2c(=O)n1CCc1ccccc1`, in the experiment with MDA-MB-468 breast, the GI50 was 0.74 µM and the TGI was determined as 2.97 µM.
The corresponding values for `CCc1ccc(CCC(=O)Nc2ncc(Cc3ccccc3)s2)o1` are 1.55 µM and > 100 µM.
Consider `O=c1[nH]nc2c3c(cccc13)NC(CN1Cc3ccccc3C1)=N2`, for which, in the experiment on MDA-MB-468 breast, the GI50 is 7.92 µM and the TGI is > 100 µM.
The corresponding values for `COc1ccc(Cn2cc3c(c2-c2cc(OC)c(OC)c(OC)c2)CCc2c(CN4CCCC4)noc2-3)cc1` are 0.28 µM and 0.966 µM.
On to `Cc1ccc(NS(=O)(=O)c2cc(C)ccc2C)cc1`, for which, in the experiment with MDA-MB-468 breast, the GI50 was 1.42 µM and the TGI is 7.28 µM.
For `CCN(CC)CCCC(C)Nc1cnc(C(=O)Nc2cc(F)cc3cccnc23)cn1` (stereo not drawn), the GI50 with MDA-MB-468 breast was 2.83 µM and 0.327 µM.
Regarding `COc1ccc(C(=O)/C=C/c2cc(C(=O)c3cc(OC)c(OC)c(OC)c3)ccc2OC)cc1`, in the experiment on MDA-MB-468 breast, the GI50 was 3.03 µM and the TGI is > 100 µM.
Consider `CC1(C)N=C(N)N=C(N)N1c1cccc(CCCCc2ccc(S(=O)(=O)F)cc2Cl)c1`, for which, in the experiment on MDA-MB-468 breast, the GI50 was 2.13 µM and the TGI is 18.8 µM.
As for `O=C(Nc1ccc(Nc2ccncc2)cc1)c1ccc(Nc2ccnc3ccc([N+](=O)[O-])cc23)cc1`, in the experiment with MDA-MB-468 breast, the GI50 is > 100 µM and the TGI is > 100 µM.
Consider `COc1cc(-c2cc(-c3nc4ccccc4[nH]3)[nH]n2)cc(OC)c1OC`, for which, in the experiment on MDA-MB-468 breast, the GI50 is 0.935 µM and the TGI was 16.6 µM.
Turning to `COc1ccc(C(=O)c2cc(OC)c(OC)c(OC)c2)cc1O`, in the experiment with MDA-MB-468 breast, the GI50 is 0.239 µM and the TGI was found to be 0.779 µM.
For the compound `O=C1C(Cl)=C(N2CCOCC2)C(=O)c2ccccc21`, in the experiment on MDA-MB-468 breast, the GI50 was 1.44 µM and the TGI was 2.94 µM.
In the same order, the values of `Cc1nc(Nc2ccc(F)c(Cl)c2)sc1C(=O)O` are 1.2 µM and 3.79 µM.
